# Data as given in PubChem BioAssay AID248 (DTP/NCI, 2004).
# Where “and” joins values, the source holds several entries; their conditions need not be identical. Equal entries are not always repeated. Toxic doses and inconclusive results are not listed.
# Tested on: L1210 leukemia ip in BDF1 mice, survival T/C
# Test: NCI In Vivo Anticancer Drug Screen. Data for tumor model L1210 Leukemia (intraperitoneal) in B6D2F1 (BDF1) mice
# Settings: higher = longer survival
# Summary of the method: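 Tumor was transplanted into mice, which were then dosed with test compound or vehicle alone. Survival was recorded for each group, and the treated figure was expressed relative to the control figure.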
structure (smiles),measurement,setting,value
COc1ccc2[nH]c3c(C)c4ccncc4c(C)c3c2c1,T/C,"endpoint: mean survival time, dose: 2.5 mg/kg/injection, schedule: Q01DX009 (ip), vehicle: Klucel (hydroxypropylcellulose) (HPC)",93 % of control
same,T/C,"endpoint: mean survival time, dose: 3.12 mg/kg/injection, schedule: Q01DX009 (ip), vehicle: citric acid",113 % of control and 124 % of control
same,T/C,"endpoint: mean survival time, dose: 3.12 mg/kg/injection, schedule: Q01DX009 (ip), vehicle: clinical formulation",109 % of control and 121 % of control
same,T/C,"endpoint: mean survival time, dose: 3.12 mg/kg/injection, schedule: Q04DX003 (ip), vehicle: citric acid",106 % of control
same,T/C,"endpoint: mean survival time, dose: 3.12 mg/kg/injection, schedule: Q04DX003 (ip), vehicle: clinical formulation",104 % of control
same,T/C,"endpoint: mean survival time, dose: 5.0 mg/kg/injection, schedule: Q01DX009 (ip), vehicle: Klucel (hydroxypropylcellulose) (HPC)",106 % of control
same,T/C,"endpoint: mean survival time, dose: 6.0 mg/kg/injection, schedule: Q01DX Z (ip), vehicle: saline",112 % of control
same,T/C,"endpoint: mean survival time, dose: 6.25 mg/kg/injection, schedule: Q01DX009 (ip), vehicle: citric acid",122 % of control
same,T/C,"endpoint: mean survival time, dose: 6.25 mg/kg/injection, schedule: Q04DX003 (ip), vehicle: citric acid",109 % of control and 112 % of control
same,T/C,"endpoint: mean survival time, dose: 6.25 mg/kg/injection, schedule: Q04DX003 (ip), vehicle: clinical formulation",106 % of control and 108 % of control
same,T/C,"endpoint: mean survival time, dose: 9.37 mg/kg/injection, schedule: Q01DX001 (ip), vehicle: other",102 % of control
same,T/C,"endpoint: mean survival time, dose: 9.37 mg/kg/injection, schedule: Q01DX001 (sc), vehicle: other",98 % of control
same,T/C,"endpoint: mean survival time, dose: 9.37 mg/kg/injection, schedule: Q04DX003 (ip), vehicle: other",103 % of control
same,T/C,"endpoint: mean survival time, dose: 9.38 mg/kg/injection, schedule: Q04DX003 (ip), vehicle: clinical formulation",104 % of control
same,T/C,"endpoint: mean survival time, dose: 9.38 mg/kg/injection, schedule: Q04DX003 (ip), vehicle: lactic acid",121 % of control
same,T/C,"endpoint: mean survival time, dose: 10.0 mg/kg/injection, schedule: Q01DX009 (ip), vehicle: Klucel (hydroxypropylcellulose) (HPC)",109 % of control
same,T/C,"endpoint: mean survival time, dose: 12.0 mg/kg/injection, schedule: Q01DX001 (ip), vehicle: saline",106 % of control
same,T/C,"endpoint: mean survival time, dose: 12.0 mg/kg/injection, schedule: Q01DX Z (ip), vehicle: saline",109 % of control and 123 % of control
same,T/C,"endpoint: mean survival time, dose: 12.0 mg/kg/injection, schedule: Q01DX Z (oral), vehicle: saline",116 % of control
same,T/C,"endpoint: mean survival time, dose: 12.5 mg/kg/injection, schedule: Q01DX009 (ip), vehicle: citric acid",150 % of control
same,T/C,"endpoint: mean survival time, dose: 12.5 mg/kg/injection, schedule: Q04DX003 (ip), vehicle: citric acid",116 % of control
same,T/C,"endpoint: mean survival time, dose: 12.5 mg/kg/injection, schedule: Q04DX003 (ip), vehicle: clinical formulation",117 % of control and 120 % of control
same,T/C,"endpoint: mean survival time, dose: 18.75 mg/kg/injection, schedule: Q01DX001 (ip), vehicle: other",108 % of control and 109 % of control
same,T/C,"endpoint: mean survival time, dose: 18.75 mg/kg/injection, schedule: Q01DX001 (sc), vehicle: other",104 % of control
same,T/C,"endpoint: mean survival time, dose: 18.75 mg/kg/injection, schedule: Q04DX003 (ip), vehicle: other",118 % of control
same,T/C,"endpoint: mean survival time, dose: 20.0 mg/kg/injection, schedule: Q01DX009 (ip), vehicle: Klucel (hydroxypropylcellulose) (HPC)",119 % of control
same,T/C,"endpoint: mean survival time, dose: 25.0 mg/kg/injection, schedule: Q01DX001 (ip), vehicle: saline",104 % of control
same,T/C,"endpoint: mean survival time, dose: 25.0 mg/kg/injection, schedule: Q01DX009 (ip), vehicle: citric acid",93 % of control
same,T/C,"endpoint: mean survival time, dose: 25.0 mg/kg/injection, schedule: Q01DX009 (ip), vehicle: clinical formulation",101 % of control
same,T/C,"endpoint: mean survival time, dose: 37.5 mg/kg/injection, schedule: Q01DX001 (ip), vehicle: other",114 % of control and 120 % of control
same,T/C,"endpoint: mean survival time, dose: 37.5 mg/kg/injection, schedule: Q01DX001 (ip), vehicle: saline",104 % of control
same,T/C,"endpoint: mean survival time, dose: 37.5 mg/kg/injection, schedule: Q01DX001 (oral), vehicle: other",118 % of control
same,T/C,"endpoint: mean survival time, dose: 37.5 mg/kg/injection, schedule: Q01DX001 (sc), vehicle: other",113 % of control
same,T/C,"endpoint: mean survival time, dose: 37.5 mg/kg/injection, schedule: Q01DX001 (sc), vehicle: saline",104 % of control
same,T/C,"endpoint: mean survival time, dose: 37.5 mg/kg/injection, schedule: Q04DX003 (oral), vehicle: other",113 % of control
same,T/C,"endpoint: mean survival time, dose: 50.0 mg/kg/injection, schedule: Q01DX001 (ip), vehicle: other",105 % of control
same,T/C,"endpoint: mean survival time, dose: 50.0 mg/kg/injection, schedule: Q01DX001 (ip), vehicle: saline",98 % of control
same,T/C,"endpoint: mean survival time, dose: 50.0 mg/kg/injection, schedule: Q04DX003 (ip), vehicle: clinical formulation",123 % of control
same,T/C,"endpoint: mean survival time, dose: 75.0 mg/kg/injection, schedule: Q01DX001 (ip), vehicle: saline",111 % of control and 113 % of control and 115 % of control
same,T/C,"endpoint: mean survival time, dose: 75.0 mg/kg/injection, schedule: Q01DX001 (oral), vehicle: other",124 % of control
same,T/C,"endpoint: mean survival time, dose: 75.0 mg/kg/injection, schedule: Q01DX001 (oral), vehicle: saline",113 % of control
same,T/C,"endpoint: mean survival time, dose: 75.0 mg/kg/injection, schedule: Q01DX001 (sc), vehicle: other",112 % of control
same,T/C,"endpoint: mean survival time, dose: 75.0 mg/kg/injection, schedule: Q01DX001 (sc), vehicle: saline",100 % of control
same,T/C,"endpoint: mean survival time, dose: 100.0 mg/kg/injection, schedule: Q01DX Z (ip), vehicle: carboxymethylcellulose (CMC)",96 % of control
same,T/C,"endpoint: mean survival time, dose: 100.0 mg/kg/injection, schedule: Q01DX Z (ip), vehicle: saline",109 % of control
same,T/C,"endpoint: mean survival time, dose: 100.0 mg/kg/injection, schedule: Q04DX003 (ip), vehicle: citric acid",110 % of control
same,T/C,"endpoint: mean survival time, dose: 100.0 mg/kg/injection, schedule: Q04DX003 (ip), vehicle: clinical formulation",93 % of control and 103 % of control
same,T/C,"endpoint: mean survival time, dose: 115.0 mg/kg/injection, schedule: Q01DX001 (ip), vehicle: saline",113 % of control
same,T/C,"endpoint: mean survival time, dose: 115.0 mg/kg/injection, schedule: Q01DX Z (oral), vehicle: saline",95 % of control
same,T/C,"endpoint: mean survival time, dose: 150.0 mg/kg/injection, schedule: Q01DX001 (ip), vehicle: saline",118 % of control
same,T/C,"endpoint: mean survival time, dose: 150.0 mg/kg/injection, schedule: Q01DX001 (sc), vehicle: other",120 % of control
same,T/C,"endpoint: mean survival time, dose: 150.0 mg/kg/injection, schedule: Q01DX001 (sc), vehicle: saline",107 % of control
same,T/C,"endpoint: mean survival time, dose: 170.0 mg/kg/injection, schedule: Q01DX001 (ip), vehicle: saline",108 % of control
same,T/C,"endpoint: mean survival time, dose: 170.0 mg/kg/injection, schedule: Q01DX Z (ip), vehicle: saline",104 % of control
same,T/C,"endpoint: mean survival time, dose: 225.0 mg/kg/injection, schedule: Q01DX001 (ip), vehicle: saline",115 % of control
same,T/C,"endpoint: mean survival time, dose: 255.0 mg/kg/injection, schedule: Q01DX Z (ip), vehicle: saline",96 % of control
same,T/C,"endpoint: mean survival time, dose: 255.0 mg/kg/injection, schedule: Q01DX Z (oral), vehicle: saline",106 % of control
same,T/C,"endpoint: mean survival time, dose: 300.0 mg/kg/injection, schedule: Q01DX001 (ip), vehicle: saline",122 % of control
same,T/C,"endpoint: mean survival time, dose: 300.0 mg/kg/injection, schedule: Q01DX001 (sc), vehicle: saline",103 % of control
same,T/C,"endpoint: mean survival time, dose: 600.0 mg/kg/injection, schedule: Q01DX001 (oral), vehicle: other",92 % of control
same,T/C,"endpoint: mean survival time, dose: 600.0 mg/kg/injection, schedule: Q01DX001 (sc), vehicle: saline",111 % of control
same,T/C,"endpoint: mean survival time, dose: 1200.0 mg/kg/injection, schedule: Q01DX001 (oral), vehicle: saline",104 % of control
same,T/C,"endpoint: median survival time, dose: 2.0 mg/kg/injection, schedule: Q03HX008 (oral), vehicle: other",100 % of control
same,T/C,"endpoint: median survival time, dose: 2.0 mg/kg/injection, schedule: Q03HX008 (sc), vehicle: water",100 % of control
same,T/C,"endpoint: median survival time, dose: 4.0 mg/kg/injection, schedule: Q01DX009 (ip), vehicle: other",116 % of control
same,T/C,"endpoint: median survival time, dose: 4.0 mg/kg/injection, schedule: Q01DX009 (oral), vehicle: other",111 % of control
same,T/C,"endpoint: median survival time, dose: 4.0 mg/kg/injection, schedule: Q01DX009 (sc), vehicle: water",100 % of control
same,T/C,"endpoint: median survival time, dose: 4.0 mg/kg/injection, schedule: Q03HX008 (oral), vehicle: other",111 % of control
same,T/C,"endpoint: median survival time, dose: 4.0 mg/kg/injection, schedule: Q03HX008 (sc), vehicle: water",111 % of control
same,T/C,"endpoint: median survival time, dose: 8.0 mg/kg/injection, schedule: Q01DX009 (oral), vehicle: other",111 % of control
same,T/C,"endpoint: median survival time, dose: 8.0 mg/kg/injection, schedule: Q01DX009 (sc), vehicle: water",116 % of control
same,T/C,"endpoint: median survival time, dose: 8.0 mg/kg/injection, schedule: Q03HX008 (oral), vehicle: other",94 % of control
same,T/C,"endpoint: median survival time, dose: 8.0 mg/kg/injection, schedule: Q03HX008 (sc), vehicle: water",122 % of control
same,T/C,"endpoint: median survival time, dose: 16.0 mg/kg/injection, schedule: Q01DX001 (oral), vehicle: other",100 % of control
same,T/C,"endpoint: median survival time, dose: 16.0 mg/kg/injection, schedule: Q01DX001 (sc), vehicle: water",111 % of control
same,T/C,"endpoint: median survival time, dose: 16.0 mg/kg/injection, schedule: Q01DX009 (ip), vehicle: water",111 % of control
same,T/C,"endpoint: median survival time, dose: 16.0 mg/kg/injection, schedule: Q01DX009 (oral), vehicle: other",122 % of control
same,T/C,"endpoint: median survival time, dose: 16.0 mg/kg/injection, schedule: Q03HX008 (oral), vehicle: other",116 % of control
same,T/C,"endpoint: median survival time, dose: 32.0 mg/kg/injection, schedule: Q01DX001 (oral), vehicle: other",111 % of control
same,T/C,"endpoint: median survival time, dose: 32.0 mg/kg/injection, schedule: Q01DX009 (ip), vehicle: other",100 % of control
same,T/C,"endpoint: median survival time, dose: 32.0 mg/kg/injection, schedule: Q01DX009 (ip), vehicle: water",100 % of control
same,T/C,"endpoint: median survival time, dose: 32.0 mg/kg/injection, schedule: Q01DX009 (oral), vehicle: other",105 % of control
same,T/C,"endpoint: median survival time, dose: 32.0 mg/kg/injection, schedule: Q03HX008 (sc), vehicle: water",150 % of control
same,T/C,"endpoint: median survival time, dose: 64.0 mg/kg/injection, schedule: Q01DX001 (oral), vehicle: other",111 % of control
same,T/C,"endpoint: median survival time, dose: 64.0 mg/kg/injection, schedule: Q01DX001 (sc), vehicle: water",111 % of control
same,T/C,"endpoint: median survival time, dose: 64.0 mg/kg/injection, schedule: Q01DX009 (sc), vehicle: water",116 % of control
same,T/C,"endpoint: median survival time, dose: 128.0 mg/kg/injection, schedule: Q01DX001 (oral), vehicle: other",122 % of control
same,T/C,"endpoint: median survival time, dose: 128.0 mg/kg/injection, schedule: Q01DX009 (oral), vehicle: other",111 % of control
same,T/C,"endpoint: median survival time, dose: 256.0 mg/kg/injection, schedule: Q01DX001 (sc), vehicle: water",122 % of control
